In patent US12070458B2, “Therapeutic agent composition and method of use, for treatment of mild congnitive impairment, depression, and psychological disorders” (priority 2018, dated 2024):
Entries after “also recorded” stand apart in the source; their conditions may differ.

Test system: Alzheimer patients with mild cognitive impairment
Test: Clinical trial on Alzheimer's patients with mild cognitive impairment
Format: in vivo, human
Settings: 10 mg orally once a day
Procedure: A randomized clinical trial of NA-831 (also known as cyclic Prolyl Glycine) was performed on Alzheimer patients with mild cognitive impairment of vascular origin. The drug NA-831 was administered orally with a one capsule of 10 mg once a day over a period of 12 weeks. There were 32 Alzheimer patients participated in the study.
• Is male or female, at 55-85 years of age (inclusive) at screening. • Self-reported memory complaint, corroborated by spouse or companion as appropriate. • Wechsler Memory Scale III (WMS-III) age-adjusted Logical Memory II score ≤5. • Mini-Mental State Exam (MMSE)≥24. • Center for Epidemiologic Studies-Depression (CES-D) score <27. • Normal thyroid function, defined as TSH, T3 and T4 within normal limits. • Agree not to consume alcoholic beverages within 8 hours of each study visit. • Willing and able to sign informed consent and complete the CTB and all other tests and procedures as listed in the protocol. • Female subjects must be surgically sterile or post-menopausal for at least 2 years. If <2 years post-menopausal, then a follicle stimulating hormone (FSH) ≥40 mIU/mL must be obtained. […] Assessment • 1) A scale assessing the severity of symptoms based on the Unified Assessment of Clinical-Pharmacological Actions of Psychotropic Agents in Patients with Organic Disorders, which provides objective quantitative data on the therapeutic dynamics of psychopathological symptomatology and the characteristics of the psychotropic actions of agents. • 2) The Mini Mental State Examination (MMSE), which consists of a battery of neuropsychological tests evaluating cognitive functions in points: attention, memory, gnosis, speech, praxis, and counting. • 3) The Brief Cognitive Rating Scale (BCRS), which provides assessment of the severities of the individual components of cognitive impairments. • 4) The Cognitive Capacity Screening Examination (CCSE), which consists of a battery of tests assessing cognitive functions: orientation, memory, counting, and the abilities to infer and to group objects. • 5) The Clinical Global Impression scale, which provides quantitative assessments of the therapeutic efficacies of agents, along with tolerance and safety, using investigations of measures of disease severity, the level of “overall improvement,” the therapeutic effect, and the presence and severity of side effects during treatment. • 6) Laboratory analyses consisting of general blood and urine tests, including biochemical investigations (AST, ALT). • 7) ECG traces. Results
The mental state of patients with mild cognitive impairment, such as but not limited to through vascular origin was defined by the assessment including the Mini Mental State Examination (MMSE), the Brief Cognitive Rating Scale (BCRS), the Cognitive Capacity Screening Examination (CCSE).
W is Wilcoxon signed-rank test, which is the nonparametric test equivalent to the dependent t-test. It is used to compare two sets of scores that come from the same participants. This can occur when we wish to investigate any change in scores from one time point to another, or when individuals are subjected to more than one condition.
Clinicians use used a Wilcoxon signed-rank test to understand whether there was a difference in the patient conditions in term of fatigue before and after a period the time with the drug treatment.
Analysis of the therapeutic efficacies of NA-831 were performed in all patients in the trial using the assessment methods including: the Mini Mental State Examination (MMSE), the Brief Cognitive Rating Scale (BCRS), and the Cognitive Capacity Screening Examination (CCSE).

O=C1NCC(=O)N2CCC[C@@H]12 [cPG, cyclic Prolyl Glycine]
long-term memory (12 weeks): improves | orientation (12 weeks): improves | patients with little improvement (12 weeks): 7.5% | patients with marked improvement (12 weeks): 92.5% | short-term memory (12 weeks): improves | ability to concentrate and count (Brief Cognitive Rating Scale) (day 42 to day 84, p value of less than 0.01): improve | functions significantly improved with p<0.01 (listed as NA-831): Reduce fatigue; also recorded: Reduce anxiety; also recorded: Reduce irritability; also recorded: Improve lability; also recorded: Reduce disturbance from waking up at night; also recorded: Reduce daytime drowsiness; also recorded: Improve duration of nocturnal sleep | Affective Lability, W (Wilcoxon signed-rank test) (Baseline vs day 7): 23 | Anxiety, W (Wilcoxon signed-rank test) (Baseline vs day 7): 22 | Apathy indifference, W (Wilcoxon signed-rank test) (Baseline vs day 7): 19 | Daytime drowsiness, W (Wilcoxon signed-rank test) (Baseline vs day 7): 19 | Decreased mood, W (Wilcoxon signed-rank test) (Baseline vs day 7): 3 | Disturbance to waking, W (Wilcoxon signed-rank test) (Baseline vs day 7): 21 | Headache, W (Wilcoxon signed-rank test) (Baseline vs day 7): 28 | Hyperesthesia, W (Wilcoxon signed-rank test) (Baseline vs day 7): 11 | Impairments to the depth and duration of nocturnal sleep, W (Wilcoxon signed-rank test) (Baseline vs day 7): 37 | Increased fatigue, W (Wilcoxon signed-rank test) (Baseline vs day 7): 17 | Increased irritability, W (Wilcoxon signed-rank test) (Baseline vs day 7): 38 | Orthostatic Impairment, W (Wilcoxon signed-rank test) (Baseline vs day 7): 18 | Sleeping Disturbance, W (Wilcoxon signed-rank test) (Baseline vs day 7): 37 | Sweating, W (Wilcoxon signed-rank test) (Baseline vs day 7): 12 | Tachycardia, W (Wilcoxon signed-rank test) (Baseline vs day 7): 29 | Affective Lability, W (Wilcoxon signed-rank test) (Baseline vs day 14): 58 | Anxiety, W (Wilcoxon signed-rank test) (Baseline vs day 14): 22 | Apathy indifference, W (Wilcoxon signed-rank test) (Baseline vs day 14): 41 | Daytime drowsiness, W (Wilcoxon signed-rank test) (Baseline vs day 14): 45 | Decreased mood, W (Wilcoxon signed-rank test) (Baseline vs day 14): 12 | Disturbance to waking, W (Wilcoxon signed-rank test) (Baseline vs day 14): 29 | Headache, W (Wilcoxon signed-rank test) (Baseline vs day 14): 49 | Hyperesthesia, W (Wilcoxon signed-rank test) (Baseline vs day 14): 21 | Impairments to the depth and duration of nocturnal sleep, W (Wilcoxon signed-rank test) (Baseline vs day 14): 57 | Increased fatigue, W (Wilcoxon signed-rank test) (Baseline vs day 14): 95 | Increased irritability, W (Wilcoxon signed-rank test) (Baseline vs day 14): 47 | Orthostatic Impairment, W (Wilcoxon signed-rank test) (Baseline vs day 14): 37 | Sleeping Disturbance, W (Wilcoxon signed-rank test) (Baseline vs day 14): 47 | Sweating, W (Wilcoxon signed-rank test) (Baseline vs day 14): 23 | Tachycardia, W (Wilcoxon signed-rank test) (Baseline vs day 14): 28 | Affective Lability, W (Wilcoxon signed-rank test) (Baseline vs day 21): 69 | Anxiety, W (Wilcoxon signed-rank test) (Baseline vs day 21): 46 | Apathy indifference, W (Wilcoxon signed-rank test) (Baseline vs day 21): 57 | Daytime drowsiness, W (Wilcoxon signed-rank test) (Baseline vs day 21): 52 | Decreased mood, W (Wilcoxon signed-rank test) (Baseline vs day 21): 22 | Disturbance to waking, W (Wilcoxon signed-rank test) (Baseline vs day 21): 41 | Headache, W (Wilcoxon signed-rank test) (Baseline vs day 21): 98 | Hyperesthesia, W (Wilcoxon signed-rank test) (Baseline vs day 21): 33 | Impairments to the depth and duration of nocturnal sleep, W (Wilcoxon signed-rank test) (Baseline vs day 21): 91 | Increased fatigue, W (Wilcoxon signed-rank test) (Baseline vs day 21): 97 | Increased irritability, W (Wilcoxon signed-rank test) (Baseline vs day 21): 68 | Orthostatic Impairment, W (Wilcoxon signed-rank test) (Baseline vs day 21): 58 | Sleeping Disturbance, W (Wilcoxon signed-rank test) (Baseline vs day 21): 70 | Sweating, W (Wilcoxon signed-rank test) (Baseline vs day 21): 37 | Tachycardia, W (Wilcoxon signed-rank test) (Baseline vs day 21): 35 | Affective Lability, W (Wilcoxon signed-rank test) (Baseline vs day 28): 118 | Anxiety, W (Wilcoxon signed-rank test) (Baseline vs day 28): 70 | Apathy indifference, W (Wilcoxon signed-rank test) (Baseline vs day 28): 59 | Daytime drowsiness, W (Wilcoxon signed-rank test) (Baseline vs day 28): 67 | Decreased mood, W (Wilcoxon signed-rank test) (Baseline vs day 28): 23 | Disturbance to waking, W (Wilcoxon signed-rank test) (Baseline vs day 28): 47 | Headache, W (Wilcoxon signed-rank test) (Baseline vs day 28): 101 | Hyperesthesia, W (Wilcoxon signed-rank test) (Baseline vs day 28): 67 | Impairments to the depth and duration of nocturnal sleep, W (Wilcoxon signed-rank test) (Baseline vs day 28): 93 | Increased fatigue, W (Wilcoxon signed-rank test) (Baseline vs day 28): 137 | Increased irritability, W (Wilcoxon signed-rank test) (Baseline vs day 28): 93 | Orthostatic Impairment, W (Wilcoxon signed-rank test) (Baseline vs day 28): 78 | Sleeping Disturbance, W (Wilcoxon signed-rank test) (Baseline vs day 28): 70 | Sweating, W (Wilcoxon signed-rank test) (Baseline vs day 28): 66 | Tachycardia, W (Wilcoxon signed-rank test) (Baseline vs day 28): 45 | Affective Lability, W (Wilcoxon signed-rank test) (Baseline vs day 42): 139 | Anxiety, W (Wilcoxon signed-rank test) (Baseline vs day 42): 107 | Apathy indifference, W (Wilcoxon signed-rank test) (Baseline vs day 42): 61 | Daytime drowsiness, W (Wilcoxon signed-rank test) (Baseline vs day 42): 76 | Decreased mood, W (Wilcoxon signed-rank test) (Baseline vs day 42): 23 | Disturbance to waking, W (Wilcoxon signed-rank test) (Baseline vs day 42): 69 | Headache, W (Wilcoxon signed-rank test) (Baseline vs day 42): 120 | Hyperesthesia, W (Wilcoxon signed-rank test) (Baseline vs day 42): 69 | Impairments to the depth and duration of nocturnal sleep, W (Wilcoxon signed-rank test) (Baseline vs day 42): 104 | Increased fatigue, W (Wilcoxon signed-rank test) (Baseline vs day 42): 155 | Increased irritability, W (Wilcoxon signed-rank test) (Baseline vs day 42): 109 | Orthostatic Impairment, W (Wilcoxon signed-rank test) (Baseline vs day 42): 67 | Sleeping Disturbance, W (Wilcoxon signed-rank test) (Baseline vs day 42): 82 | Sweating, W (Wilcoxon signed-rank test) (Baseline vs day 42): 67 | Tachycardia, W (Wilcoxon signed-rank test) (Baseline vs day 42): 53 | Affective Lability, W (Wilcoxon signed-rank test) (Baseline vs day 56): 140 | Anxiety, W (Wilcoxon signed-rank test) (Baseline vs day 56): 110 | Apathy indifference, W (Wilcoxon signed-rank test) (Baseline vs day 56): 65 | Daytime drowsiness, W (Wilcoxon signed-rank test) (Baseline vs day 56): 109 | Decreased mood, W (Wilcoxon signed-rank test) (Baseline vs day 56): 23 | Disturbance to waking, W (Wilcoxon signed-rank test) (Baseline vs day 56): 92 | Headache, W (Wilcoxon signed-rank test) (Baseline vs day 56): 121 | Hyperesthesia, W (Wilcoxon signed-rank test) (Baseline vs day 56): 78 | Impairments to the depth and duration of nocturnal sleep, W (Wilcoxon signed-rank test) (Baseline vs day 56): 113 | Increased fatigue, W (Wilcoxon signed-rank test) (Baseline vs day 56): 159 | Increased irritability, W (Wilcoxon signed-rank test) (Baseline vs day 56): 110 | Orthostatic Impairment, W (Wilcoxon signed-rank test) (Baseline vs day 56): 78 | Sleeping Disturbance, W (Wilcoxon signed-rank test) (Baseline vs day 56): 82 | Sweating, W (Wilcoxon signed-rank test) (Baseline vs day 56): 67 | Tachycardia, W (Wilcoxon signed-rank test) (Baseline vs day 56): 67 | Affective Lability, W (Wilcoxon signed-rank test) (Baseline vs day 70): 142 | Anxiety, W (Wilcoxon signed-rank test) (Baseline vs day 70): 115 | Apathy indifference, W (Wilcoxon signed-rank test) (Baseline vs day 70): 67 | Daytime drowsiness, W (Wilcoxon signed-rank test) (Baseline vs day 70): 117 | Decreased mood, W (Wilcoxon signed-rank test) (Baseline vs day 70): 24 | Disturbance to waking, W (Wilcoxon signed-rank test) (Baseline vs day 70): 95 | Headache, W (Wilcoxon signed-rank test) (Baseline vs day 70): 129 | Hyperesthesia, W (Wilcoxon signed-rank test) (Baseline vs day 70): 83 | Impairments to the depth and duration of nocturnal sleep, W (Wilcoxon signed-rank test) (Baseline vs day 70): 118 | Increased fatigue, W (Wilcoxon signed-rank test) (Baseline vs day 70): 162 | Increased irritability, W (Wilcoxon signed-rank test) (Baseline vs day 70): 117 | Orthostatic Impairment, W (Wilcoxon signed-rank test) (Baseline vs day 70): 81 | Sleeping Disturbance, W (Wilcoxon signed-rank test) (Baseline vs day 70): 82 | Sweating, W (Wilcoxon signed-rank test) (Baseline vs day 70): 69 | Tachycardia, W (Wilcoxon signed-rank test) (Baseline vs day 70): 69 | MMSE, average (day 84, average 23.5 on day 1): 29.75
